This note sets out measurements from PMC11589582, “Structural mechanisms of human sodium-coupled high-affinity choline transporter CHT1” (Cell Discovery, 2024).

The structures appear in SMILES notation.

The assay addresses T1, sodium-coupled high-affinity choline transporter CHT1 (Homo sapiens, UniProt Q9GZV3).
T1 construct: gene SLC5A7; Full-length human CHT1 (NP_068587.1) with a C-terminal Strep-tag
T1 sequence (Q9GZV3 1-580): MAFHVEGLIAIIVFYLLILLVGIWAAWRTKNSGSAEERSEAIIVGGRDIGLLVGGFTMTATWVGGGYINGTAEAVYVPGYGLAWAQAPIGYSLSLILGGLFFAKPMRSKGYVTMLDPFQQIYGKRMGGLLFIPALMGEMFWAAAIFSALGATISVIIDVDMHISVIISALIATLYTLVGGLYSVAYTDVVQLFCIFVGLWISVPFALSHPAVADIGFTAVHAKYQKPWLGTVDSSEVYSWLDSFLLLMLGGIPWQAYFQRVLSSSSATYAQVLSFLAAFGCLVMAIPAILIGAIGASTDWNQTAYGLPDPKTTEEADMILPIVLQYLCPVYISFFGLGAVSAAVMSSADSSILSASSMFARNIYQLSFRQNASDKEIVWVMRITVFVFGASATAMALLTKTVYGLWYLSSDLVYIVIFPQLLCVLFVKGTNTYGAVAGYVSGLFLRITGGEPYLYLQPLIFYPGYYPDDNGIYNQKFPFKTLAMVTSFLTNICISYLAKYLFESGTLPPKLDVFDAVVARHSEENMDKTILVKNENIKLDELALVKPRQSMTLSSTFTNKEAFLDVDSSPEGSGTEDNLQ
Description: cryo-EM structure at […] Å; [3H]-choline uptake inhibition in CHT1-expressing HEK293 cells. The class given is cell-based.

`C[N+]1(C)CCOC(O)(c2ccc(-c3ccc(C4(O)C[N+](C)(C)CCO4)cc3)cc2)C1` (stereo not shown) [HC3, hemicholinium-3] yielded a half-maximal inhibitory concentration (IC50) of 4.98 ± 1.04 nM.
